The record followed here is US20230192705A1, “SHP2 INHIBITORS, COMPOSITIONS AND USES THEREOF” (Betta Pharmaceuticals Co., Ltd, priority 2020, published 2023).

This experiment has as its target T1, SHP2 (Homo sapiens, UniProt Q06124).
T1 sequence (Q06124 1-593): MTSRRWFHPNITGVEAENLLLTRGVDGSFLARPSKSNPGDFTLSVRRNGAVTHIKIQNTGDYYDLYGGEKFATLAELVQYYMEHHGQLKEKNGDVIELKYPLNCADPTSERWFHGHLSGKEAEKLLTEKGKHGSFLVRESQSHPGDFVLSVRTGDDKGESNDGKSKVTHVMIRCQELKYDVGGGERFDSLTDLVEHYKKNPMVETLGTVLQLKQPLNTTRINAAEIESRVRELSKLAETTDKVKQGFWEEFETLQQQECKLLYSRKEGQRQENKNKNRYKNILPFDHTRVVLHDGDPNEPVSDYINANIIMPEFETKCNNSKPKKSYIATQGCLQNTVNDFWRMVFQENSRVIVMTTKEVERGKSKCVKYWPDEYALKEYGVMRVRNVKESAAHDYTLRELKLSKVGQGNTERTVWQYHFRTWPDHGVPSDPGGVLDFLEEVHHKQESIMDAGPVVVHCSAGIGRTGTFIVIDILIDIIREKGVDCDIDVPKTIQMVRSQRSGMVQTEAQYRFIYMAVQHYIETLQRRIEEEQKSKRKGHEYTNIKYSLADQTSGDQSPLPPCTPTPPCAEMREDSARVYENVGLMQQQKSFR
Kind of experiment: SHP2 allosteric inhibitor enzyme activity assay (DiFMUP fluorescence). In kind it is biochemical. The note with it: class symbols. In a few lines:
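SHP2 activated by 0.5 μM IRS1_pY1172(dPEG8)pY1222 peptide, 0.2 ng enzyme per well, 1 h at room temperature with compound (1 μM top, 3-fold series), then DiFMUP substrate 1 h. Buffer: 60 mM HEPES, 75 mM NaCl, 75 mM KCl, 0.05% BRIJ-35, 1 mM EDTA, 5 mM DTT. Fluorescence ex 340/em 450 nm; IC50 by variable-slope fit.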
Usually IC50 stands for the concentration needed to halve the response being measured. A lower IC50 goes with inhibition by little substance. In turn, `N[C@@H]1c2ccccc2CC12CCN(c1nc3[nH]nc(C4(c5cccc(C6CCOC6)c5)CC4)c3c(=O)[nH]1)CC2` (stereo partly drawn) [Example 39, 6-((S)-1-amino-1,3-dihydrospiro[indene-2,4′-piperidin]-1′-yl)-3-(1-(3-(tetrahydrofuran-3-yl)phenyl)cyclopropyl)-1,5-dihydro-4H-pyrazolo[3,4-d]pyrimidin-4-one] gave a concentration for half-maximal inhibition (IC50) of at most 20 nM.
In the case of `N[C@@H]1c2ccccc2CC12CCN(c1nc3[nH]nc(C4(c5cccc(OC(F)F)c5)CC4)c3c(=O)[nH]1)CC2` [Example 52, (S)-6-(1-amino-1,3-dihydrospiro[indene-2,4′-piperidin]-1′-yl)-3-(1-(3-(difluoromethoxy)plienyl)cyclo-propyl)-1,5-dihydro-4H-pyrazolo[3,4-d]pyrimidin-4-one], the 50% inhibitory concentration (IC50) is at most 20 nM.
In the case of `N[C@@H]1c2ccccc2CC12CCN(c1nc3[nH]nc(C4=C(F)CCc5nc(C(F)(F)F)ccc54)c3c(=O)[nH]1)CC2` [Example 187, (S)-6-(1-amino-1,3-dihydrospiro[indene-2,4′-piperidin]-1′-yl)-3-(6-fluoro-2-(trifluoromethyl)-7,8-dihydroquinolin-5-yl)-1,5-dihydro-4H-pyrazolo[3,4-d]pyrimidin-4-one] it was at most 20 nM.
The compound `N[C@@H]1c2ccccc2CC12CCN(c1nc3[nH]nc(C4=CCCc5ncccc54)c3c(=O)[nH]1)CC2` [Example 112, (S)-6-(1-amino-1,3-dihydrospiro[indene-2,4′-piperidin]-1′-yl)-3-(7,8-dihydroquinolin-5-yl)-1,5-dihydro-4H-pyrazolo[3,4-d]pyrimidin-4-one] returned a 50% inhibitory concentration (IC50) of at most 20 nM.
Consider `C[C@@H]1OCC2(CCN(c3nc4[nH]nc(C5(c6ccccn6)CC5)c4c(=O)[nH]3)CC2)[C@@H]1N` [Example 276, 6-((3S,4S)-4-amino-3-methyl-2-oxa-8-azaspiro[4.5]decan-8-yl)-3-(1-(pyridin-2-yl)cyclopropyl)-1,5-dihydro-4H-pyrazolo[3,4-d]pyrimidin-4-one], for which the IC50 was 20 to 60 nM.
`N[C@@H]1c2cc(F)ccc2CC12CCN(c1nc3[nH]nc(C4(c5ccccc5)CC4)c3c(=O)[nH]1)CC2` [Example 195, (S)-6-(1-amino-6-fluoro-1,3-dihydrospiro[indene-2,4′-piperidin]-1′-yl)-3-(1-phenylcyclopropyl)-1,5-dihydro-4H-pyrazolo[3,4-d]pyrimidin-4-one] came in with a concentration for half-maximal inhibition (IC50) of at most 20 nM.
The same measure for `Nc1ccccc1C1(c2n[nH]c3nc(N4CCC5(CC4)Cc4ccccc4[C@H]5N)[nH]c(=O)c23)CC1` [Example 22, (S)-6-(1-amino-1,3-dihydrospiro[indene-2,4′-piperidin]-1′-yl)-3-(1-(2-aminophenyl)cyclopropyl)-1,5-dihydro-4H-pyrazolo[3,4-d]pyrimidin-4-one]: at most 20 nM; for `N[C@@H]1c2ccccc2CC12CCN(c1nc3[nH]nc(C4(c5ccnc6ccccc56)CC4)c3c(=O)[nH]1)CC2` [Example 78, (S)-6-(1-amino-1,3-dihydrospiro[indene-2,4′-piperidin]-1′-yl)-3-(1-(quinolin-4-yl)cyclopropyl)-1,5-dihydro-4H-pyrazolo[3,4-d]pyrimidin-4-one]: at most 20 nM; for `CCCCCc1cc2c(s1)CCC=C2c1n[nH]c2nc(N3CCC4(CC3)Cc3ccccc3[C@H]4N)[nH]c(=O)c12` [Example 118, (S)-6-(1-amino-1,3-dihydrospiro[indene-2,4′-piperidin]-1′-yl)-3-(2-pentyl-6,7-dihydrobenzo[b]thiophen-4-yl)-1,5-dihydro-4H-pyrazolo[3,4-d]pyrimidin-4-one]: 20 to 60 nM.
In the case of `C[C@@H]1OCC2(CCN(c3nc4[nH]nc(C5(c6ccc7c(c6)OC(F)(F)O7)CC5)c4c(=O)[nH]3)CC2)[C@@H]1N` [Example 308, 6-((3S,4S)-4-amino-3-methyl-2-oxa-8-azaspiro[4.5]decan-8-yl)-3-(1-(2,2-difluorobenzo[d][1,3]dioxol-5-yl)cyclopropyl)-1,5-dihydro-4H-pyrazolo[3,4-d]pyrimidin-4-one] it was over 60 nM.
In the case of `Cn1ccc(-c2cc(C3(c4n[nH]c5nc(N6CCC7(CC6)Cc6ccccc6[C@H]7N)[nH]c(=O)c45)CC3)ccn2)n1` [Example 88, (S)-6-(1-amino-1,3-dihydrospiro[indene-2,4′-piperidin]-1′-yl)-3-(1-(2-(1-methyl-1H-pyrazol-3-yl)pyridin-4-yl)cyclopropyl)-1,5-dihydro-4H-pyrazolo[3,4-d]pyrimidin-4-one] it was at most 20 nM.
In turn, `N[C@@H]1c2ccccc2CC12CCN(c1nc3[nH]nc(C4=CCOc5cc(Cl)ccc54)c3c(=O)[nH]1)CC2` [Example 167, (S)-6-(1-amino-1,3-dihydrospiro[indene-2,4′-piperidin]-1′-yl)-3-(7-chloro-2H-chromen-4-yl)-1,5-dihydro-4H-pyrazolo[3,4-d]pyrimidin-4-one] showed an IC50 of at most 20 nM.
In the case of `N[C@@H]1c2ccccc2CC12CCN(c1nc3[nH]nc(C4(c5ccco5)CC4)c3c(=O)[nH]1)CC2` [Example 256, (S)-6-(1-amino-1,3-dihydrospiro[indene-2,4′-piperidin]-1′-yl)-3-(1-(furan-2-yl)cyclopropyl)-1,5-dihydro-4H-pyrazolo[3,4-d]pyrimidin-4-one] it was at most 20 nM; in that of `N[C@@H]1c2ccccc2CC12CCN(c1nc3[nH]nc(C4(c5ccnc(N6CCOCC6)c5Cl)CC4)c3c(=O)[nH]1)CC2` [Example 65, (S)-6-(1-amino-1,3-dihydrospiro[indene-2,4′-piperidin]-1′-yl)-3-(1-(3-chloro-2-morpholinopyridin-4-yl)cyclopropyl)-1,5-dihydro-4H-pyrazolo[3,4-d]pyrimidin-4-one], 20 to 60 nM.
In the case of `N[C@@H]1c2ccccc2CC12CCN(c1nc3[nH]nc(C4=CCNc5ccccc54)c3c(=O)[nH]1)CC2` [Example 177, (S)-6-(1-amino-1,3-dihydrospiro[indene-2,4′-piperidin]-1′-yl)-3-(1,2-dihydroquinolin-4-yl)-1,5-dihydro-4H-pyrazolo[3,4-d]pyrimidin-4-one] it was at most 20 nM; in that of `N[C@@H]1c2ccccc2CC12CCN(c1nc3[nH]nc(C4(c5ccccn5)CC4)c3c(=O)[nH]1)CC2` [Example 23, (S)-6-(1-amino-1,3-dihydrospiro[indene-2,4′-piperidin]-1′-yl)-3-(1-(pyridin-2-yl)cyclopropyl)-1,5-dihydro-4H-pyrazolo[3,4-d]pyrimidin-4-one], at most 20 nM.
The compound `CNc1ncc2c(n1)CC(C)(C)C=C2c1n[nH]c2nc(N3CCC4(CC3)Cc3ccccc3[C@H]4N)[nH]c(=O)c12` [Example 149, (S)-6-(1-amino-1,3-dihydrospiro[indene-2,4′-piperidin]-1′-yl)-3-(7,7-dimethyl-2-(methylamino)-7,8-dihydroquinazolin-5-yl)-1,5-dihydro-4H-pyrazolo[3,4-d]pyrimidin-4-one] had an IC50 of at most 20 nM.
For `C[C@@H]1OCC2(CCN(c3cnc4c(C5(c6ccsc6)CC5)n[nH]c4n3)CC2)[C@@H]1N` [Example 268, (3S,4S)-3-methyl-8-(3-(1-(thiophen-3-yl)cyclopropyl)-1H-pyrazolo[3,4-b]pyrazin-6-yl)-2-oxa-8-azaspiro[4.5]decan-4-amine], the 50% inhibitory concentration (IC50) fell in the range of 20 to 60 nM.
In the case of `N[C@@H]1c2ccccc2CC12CCN(c1nc3[nH]nc(C4=CC5(COC5)c5ccccc54)c3c(=O)[nH]1)CC2` [Example 170, (S)-6-(1-amino-1,3-dihydrospiro[indene-2,4′-piperidin]-1′-yl)-3-(spiro[indene-1,3′-oxetan]-3-yl)-1,5-dihydro-4H-pyrazolo[3,4-d]pyrimidin-4-one] it was at most 20 nM.
In the case of `CC1(C)C=C(c2n[nH]c3nc(N4CCC5(CC4)Cc4ccccc4[C@H]5N)[nH]c(=O)c23)c2cccnc2C1` [Example 143, (S)-6-(1-amino-1,3-dihydrospiro[indene-2,4′-piperidin]-1′-yl)-3-(7,7-dimethyl-7,8-dihydroquinolin-5-yl)-1,5-dihydro-4H-pyrazolo[3,4-d]pyrimidin-4-one] it was at most 20 nM; in that of `CC1(C)NC=C(c2n[nH]c3nc(N4CCC5(CC4)Cc4ccccc4[C@H]5N)[nH]c(=O)c23)c2ccccc21` [Example 179, (S)-6-(1-amino-1,3-dihydrospiro[indene-2,4′-piperidin]-1′-yl)-3-(1,1-dimethyl-1,2-dihydroisoquinolin-4-yl)-1,5-dihydro-4H-pyrazolo[3,4-d]pyrimidin-4-one], at most 20 nM; in that of `N#Cc1cccc(C2(c3n[nH]c4nc(N5CCC6(CC5)Cc5ccccc5[C@H]6N)[nH]c(=O)c34)CC2)c1` [Example 35, (S)-3-(1-(6-(1-amino-1,3-dihydrospiro[indene-2,4′-piperidin]-1′-yl)-4-oxo-4,5-dihydro-1H-pyrazolo[3,4-d]pyrimidin-3-yl)cyclopropyl)benzonitrile], at most 20 nM.
`C[C@@H]1OCC2(CCN(c3nc4[nH]nc(C5(c6nncs6)CC5)c4c(=O)[nH]3)CC2)[C@@H]1N` [Example 280, 3-(1-(1,3,4-thiadiazol-2-yl)cyclopropyl)-6-((3S,4S)-4-amino-3-methyl-2-oxa-8-azaspiro[4.5]decan-8-yl)-1,5-dihydro-4H-pyrazolo[3,4-d]pyrimidin-4-one]: the IC50 was over 60 nM.
